Active and inactive are the calls of the source.
What was measured:
[1] = target: Aryl hydrocarbon receptor (Homo sapiens, UniProt P35869); assay: Luminescence-based cell-based high throughput dose response assay for activators of the Aryl Hydrocarbon Receptor (AHR). [Related pubchem assays: 2796 (Primary screen (AHR activators in singlicate)), 2845 (Confirmation screen (AHR activators in triplicate)), 434939 (Counterscreen (PXR activators in triplicate)), 2804 (Summary (AHR activators))]; assay type: ADME
INS1 = assay: INS-1E survival protection against cytokine death – cell-based, luminescence, retest, dose response (AID 449756); assay type: functional; conditions: Rattus norvegicus;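 further: cell death triggered by IL-1 beta plus TNF-alpha plus IFN-gamma mixture; protective hits raise ATP signal compared with cytokine alone wells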
[2] = target: DNA repair and recombination protein RAD54-like (Homo sapiens, UniProt Q92698); assay: RAD54 Holliday junction migration blockers – biochemical, fluorescence, cherry-picked samples, dose series, confirmation (AID 651657); assay type: functional
cells [3] = assay type: functional, cell-based
cells [4] = assay type: functional, cell-based; remark: listed apart in the source
BJ [5] = assay: BJ-TERT-LT-ST fibroblast viability loss – cell-based, RAS-independent, luminescence, dose response (AID 1935); assay type: functional; conditions: Homo sapiens;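 further: BJ fibroblasts immortalized with TERT plus LT and ST oncogenes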
[6] = DRD fibroblast viability loss – cell-based, non-viral oncogenic, luminescence, dose response (AID 1934); assay type: functional; conditions: Homo sapiens
BJ [7] = assay: BJ-TERT fibroblast viability loss – cell-based, RAS-independent, luminescence, dose response (AID 1933); assay type: functional; conditions: Homo sapiens
[8] = target: SWI/SNF-related matrix-associated actin-dependent regulator of chromatin subfamily A member 2 (Homo sapiens, UniProt P51531); assay: Luminescence-based cell-based high throughput dose response assay to identify activators of the function of SWI/SNF related, matrix associated, actin dependent regulator of chromatin, subfamily a, member 2 (SMARCA2, BRM).; assay type: functional
[9] = Counterscreen for activators of the function of SWI/SNF related, matrix associated, actin dependent regulator of chromatin, subfamily a, member 2 (SMARCA2, BRM): Luminescence-based cell-based high throughput dose response assay to identify non-selective compounds using the VP16 reporter assay.; assay type: functional
BJ [10] = assay: cells; assay type: functional, cell-based; conditions: Homo sapiens
[11] = HIV-1 AD8 envelope cell-cell fusion blockers – cherry-pick, dose response (AID 652062); assay type: functional, cell-based;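 further: luciferase signal from cell-cell fusion driven by HIV-1 clade B AD8 Env; potency is for inhibitors of fusion seen as a drop in luminescence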
[12] = blockers of HIV-1 ZM109 envelope-driven cell-cell fusion – HeLa effector, CEM target cells, luciferase, cherry-pick, dose response (AID 652058); assay type: functional, cell-based;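 further: luciferase signal from HIV-1 Env mediated cell-cell fusion of effector and target cells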
[13] = target: Mitochondrial peptide methionine sulfoxide reductase (Bos taurus, UniProt P54149); assay type: functional;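 further: absorbance read-out, biochemical high-throughput dose-response screen for MsrA inhibitors, confirmatory; recombinant bovine MsrA coupled to E. coli TrxB with NADPH and selenocystamine; potency is for inhibitors of MsrA activity on DMSO substrate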
[14] = target: Glucose-6-phosphate 1-dehydrogenase (Homo sapiens, UniProt P11413); assay: inhibition of Homo sapiens G6PD, dose series – biochemical, fluorescence, selectivity assay for P. falciparum G6PD inhibitor project, dose response (AID 504792); assay type: functional
[15] = blockers of HIV-1 envelope-mediated cell-cell fusion – cherry-pick, dose response (AID 652057); assay type: functional, cell-based
[16] = viability loss in CEM21 cells – cell-based, CellTiter-Glo luminescence, cherry-picked, cytotoxicity control for viral fusion inhibitor project, dose response (AID 652042); assay type: functional;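 further: potency for signal decrease meaning cytotoxicity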
[17] = off-target signal loss in HeLa-CEM21 co-culture – HeLa F-luc CTL cells, cherry-picked, counter-screen for HIV-1 Env fusion inhibitor project, dose response (AID 652040); assay type: functional, cell-based;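 further: potency for signal decrease marking cytotoxic or nonspecific inhibition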
[18] = target: Tyrosine-protein phosphatase non-receptor type 11 (Homo sapiens, UniProt Q06124); assay: PTPN11 enzyme inhibitors – biochemical, selectivity assay for STEP inhibitor project, dose response (AID 602367); assay type: functional; conditions: read-out: IC50_Mean
[19] = target: Tyrosine-protein phosphatase non-receptor type 5 (Homo sapiens, UniProt P54829); assay: PTPN5 enzyme inhibition – biochemical, fluorescence intensity, uHTS hits, confirmation (AID 602372); assay type: functional; conditions: read-out: IC50_Mean
[20] = target: Dual specificity protein phosphatase 3 (Homo sapiens, UniProt P51452); assay: VHR phosphatase inhibition, dose response, selectivity assay for STEP inhibitor project, biochemical (AID 602374); assay type: functional; conditions: read-out: IC50_Mean
Sequence of Dual specificity protein phosphatase 3 (P51452 whole entry): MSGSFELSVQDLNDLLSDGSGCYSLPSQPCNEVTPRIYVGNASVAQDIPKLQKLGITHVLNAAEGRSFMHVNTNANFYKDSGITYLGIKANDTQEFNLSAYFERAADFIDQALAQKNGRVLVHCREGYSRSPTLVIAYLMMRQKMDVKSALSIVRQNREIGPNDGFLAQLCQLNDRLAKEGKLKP

Sequence of Mitochondrial peptide methionine sulfoxide reductase (P54149 whole entry): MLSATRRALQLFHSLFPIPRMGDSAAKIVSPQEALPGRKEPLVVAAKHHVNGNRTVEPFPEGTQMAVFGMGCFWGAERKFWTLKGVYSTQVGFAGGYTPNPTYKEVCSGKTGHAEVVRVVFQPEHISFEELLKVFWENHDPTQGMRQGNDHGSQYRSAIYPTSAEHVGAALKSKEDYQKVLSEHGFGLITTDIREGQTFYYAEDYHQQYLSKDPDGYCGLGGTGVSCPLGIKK
Sequence of SWI/SNF-related matrix-associated actin-dependent regulator of chromatin subfamily A member 2 (P51531 whole entry): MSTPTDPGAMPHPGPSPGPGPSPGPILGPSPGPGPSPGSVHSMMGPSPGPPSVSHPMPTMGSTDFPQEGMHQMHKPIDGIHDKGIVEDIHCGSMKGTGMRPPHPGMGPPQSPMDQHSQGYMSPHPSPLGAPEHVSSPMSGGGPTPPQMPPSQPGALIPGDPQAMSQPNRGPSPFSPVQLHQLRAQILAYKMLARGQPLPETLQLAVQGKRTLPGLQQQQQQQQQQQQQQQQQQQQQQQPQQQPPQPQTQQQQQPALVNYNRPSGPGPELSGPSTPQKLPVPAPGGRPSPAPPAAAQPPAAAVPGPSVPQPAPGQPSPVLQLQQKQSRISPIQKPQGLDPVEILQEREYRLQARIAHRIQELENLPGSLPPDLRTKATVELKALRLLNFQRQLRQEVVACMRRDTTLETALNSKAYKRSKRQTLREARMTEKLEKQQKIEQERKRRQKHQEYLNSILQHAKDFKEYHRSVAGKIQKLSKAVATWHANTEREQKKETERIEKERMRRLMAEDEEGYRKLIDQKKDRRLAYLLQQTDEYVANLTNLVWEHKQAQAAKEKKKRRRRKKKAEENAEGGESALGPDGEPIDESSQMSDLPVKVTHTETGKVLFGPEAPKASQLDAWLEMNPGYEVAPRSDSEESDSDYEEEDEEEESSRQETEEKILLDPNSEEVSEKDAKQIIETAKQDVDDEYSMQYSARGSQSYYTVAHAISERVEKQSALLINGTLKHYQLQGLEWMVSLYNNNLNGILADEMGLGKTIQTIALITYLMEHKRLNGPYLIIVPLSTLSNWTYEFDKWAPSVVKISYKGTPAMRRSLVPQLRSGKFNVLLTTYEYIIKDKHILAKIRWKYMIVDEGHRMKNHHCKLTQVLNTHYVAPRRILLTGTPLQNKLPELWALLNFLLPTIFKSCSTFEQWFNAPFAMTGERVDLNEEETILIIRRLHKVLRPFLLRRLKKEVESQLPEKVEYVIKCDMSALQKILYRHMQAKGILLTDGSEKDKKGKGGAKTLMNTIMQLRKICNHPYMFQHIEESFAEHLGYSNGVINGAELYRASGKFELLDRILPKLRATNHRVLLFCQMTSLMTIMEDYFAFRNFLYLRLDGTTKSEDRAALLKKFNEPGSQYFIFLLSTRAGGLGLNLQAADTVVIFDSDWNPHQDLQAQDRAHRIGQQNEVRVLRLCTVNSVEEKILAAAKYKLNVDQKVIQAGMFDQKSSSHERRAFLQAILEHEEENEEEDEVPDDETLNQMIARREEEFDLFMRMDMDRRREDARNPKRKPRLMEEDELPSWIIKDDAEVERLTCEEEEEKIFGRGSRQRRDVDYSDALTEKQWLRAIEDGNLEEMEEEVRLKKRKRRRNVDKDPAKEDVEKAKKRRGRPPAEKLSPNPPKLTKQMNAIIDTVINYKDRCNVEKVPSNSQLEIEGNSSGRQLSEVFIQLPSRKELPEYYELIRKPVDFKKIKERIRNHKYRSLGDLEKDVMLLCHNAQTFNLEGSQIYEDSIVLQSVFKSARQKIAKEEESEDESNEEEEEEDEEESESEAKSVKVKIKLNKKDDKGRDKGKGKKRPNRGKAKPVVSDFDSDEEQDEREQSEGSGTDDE
Sequence of Tyrosine-protein phosphatase non-receptor type 11 (Q06124 whole entry): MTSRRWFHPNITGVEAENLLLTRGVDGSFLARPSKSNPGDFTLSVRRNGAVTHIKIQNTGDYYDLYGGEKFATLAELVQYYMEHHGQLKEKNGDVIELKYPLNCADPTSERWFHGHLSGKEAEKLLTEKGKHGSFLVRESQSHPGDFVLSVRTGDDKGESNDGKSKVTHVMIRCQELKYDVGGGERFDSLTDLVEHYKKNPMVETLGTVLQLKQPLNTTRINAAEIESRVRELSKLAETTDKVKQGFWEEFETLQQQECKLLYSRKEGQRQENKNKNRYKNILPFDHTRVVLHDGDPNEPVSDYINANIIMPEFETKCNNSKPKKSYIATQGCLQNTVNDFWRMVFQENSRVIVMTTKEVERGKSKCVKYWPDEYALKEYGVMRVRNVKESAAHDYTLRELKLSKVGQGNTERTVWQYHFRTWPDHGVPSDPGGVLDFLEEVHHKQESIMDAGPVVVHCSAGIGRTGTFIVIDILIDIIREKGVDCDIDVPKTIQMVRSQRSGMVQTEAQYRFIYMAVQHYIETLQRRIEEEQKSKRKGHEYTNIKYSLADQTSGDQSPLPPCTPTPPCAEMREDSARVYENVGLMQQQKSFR
Sequence of Aryl hydrocarbon receptor (P35869 whole entry): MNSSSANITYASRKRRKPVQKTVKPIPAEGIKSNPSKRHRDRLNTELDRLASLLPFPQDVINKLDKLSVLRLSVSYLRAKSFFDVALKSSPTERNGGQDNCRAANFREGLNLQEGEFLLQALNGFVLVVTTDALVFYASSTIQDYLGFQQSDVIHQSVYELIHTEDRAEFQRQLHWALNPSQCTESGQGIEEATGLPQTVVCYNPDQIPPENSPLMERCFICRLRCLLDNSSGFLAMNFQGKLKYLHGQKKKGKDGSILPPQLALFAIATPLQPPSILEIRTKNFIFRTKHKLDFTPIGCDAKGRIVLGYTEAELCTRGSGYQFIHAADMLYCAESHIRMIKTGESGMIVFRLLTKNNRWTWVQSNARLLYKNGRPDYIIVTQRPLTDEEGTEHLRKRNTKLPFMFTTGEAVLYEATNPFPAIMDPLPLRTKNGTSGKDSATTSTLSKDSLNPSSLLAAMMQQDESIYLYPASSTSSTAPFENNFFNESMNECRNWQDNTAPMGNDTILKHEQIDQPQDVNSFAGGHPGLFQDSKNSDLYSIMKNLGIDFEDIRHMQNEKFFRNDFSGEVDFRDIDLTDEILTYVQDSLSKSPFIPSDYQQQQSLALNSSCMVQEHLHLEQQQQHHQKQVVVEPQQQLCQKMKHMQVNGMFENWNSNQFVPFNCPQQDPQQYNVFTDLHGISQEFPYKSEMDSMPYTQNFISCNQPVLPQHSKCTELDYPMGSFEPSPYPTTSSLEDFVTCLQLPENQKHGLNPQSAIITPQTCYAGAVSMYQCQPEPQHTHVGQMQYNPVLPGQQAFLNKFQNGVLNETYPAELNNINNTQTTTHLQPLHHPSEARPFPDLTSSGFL
Sequence of Glucose-6-phosphate 1-dehydrogenase (P11413 whole entry, the tested form may be a part): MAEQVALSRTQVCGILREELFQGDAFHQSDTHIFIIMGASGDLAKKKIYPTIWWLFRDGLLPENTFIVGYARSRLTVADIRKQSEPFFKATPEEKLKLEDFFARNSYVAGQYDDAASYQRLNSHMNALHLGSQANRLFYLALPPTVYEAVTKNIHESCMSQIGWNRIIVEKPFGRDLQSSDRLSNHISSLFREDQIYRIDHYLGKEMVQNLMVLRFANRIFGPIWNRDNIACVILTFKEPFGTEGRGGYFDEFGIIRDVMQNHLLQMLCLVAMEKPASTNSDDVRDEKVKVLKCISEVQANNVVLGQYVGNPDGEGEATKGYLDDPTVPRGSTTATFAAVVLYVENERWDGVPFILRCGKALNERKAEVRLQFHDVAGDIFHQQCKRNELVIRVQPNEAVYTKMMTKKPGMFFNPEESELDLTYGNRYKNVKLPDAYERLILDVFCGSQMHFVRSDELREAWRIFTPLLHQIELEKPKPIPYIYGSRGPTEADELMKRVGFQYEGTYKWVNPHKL
Sequence of Tyrosine-protein phosphatase non-receptor type 5 (P54829 whole entry): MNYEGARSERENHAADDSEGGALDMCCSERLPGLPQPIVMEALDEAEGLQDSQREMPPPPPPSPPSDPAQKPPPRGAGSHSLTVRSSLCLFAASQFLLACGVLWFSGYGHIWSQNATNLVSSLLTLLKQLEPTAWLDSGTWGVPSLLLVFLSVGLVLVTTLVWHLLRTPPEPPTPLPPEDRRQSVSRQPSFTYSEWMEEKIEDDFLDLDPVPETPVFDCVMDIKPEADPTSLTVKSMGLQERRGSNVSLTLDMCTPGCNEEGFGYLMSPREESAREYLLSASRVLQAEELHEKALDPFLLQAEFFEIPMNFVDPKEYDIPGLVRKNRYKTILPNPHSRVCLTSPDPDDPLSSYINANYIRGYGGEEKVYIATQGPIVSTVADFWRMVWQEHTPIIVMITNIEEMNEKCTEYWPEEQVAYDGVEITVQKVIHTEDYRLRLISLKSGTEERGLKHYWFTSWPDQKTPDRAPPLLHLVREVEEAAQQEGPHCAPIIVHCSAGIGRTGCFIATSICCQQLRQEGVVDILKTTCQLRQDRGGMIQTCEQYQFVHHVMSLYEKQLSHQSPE

## Nc1cc2c3c(cccc3c1)C(=O)N(CCN1CCCC1)C2=O
[1]
  EC50: 0.286 µM (active)
INS1
  AC50: 3.43 µM (active)
[2]
  AC50: 5.82 µM (active)
Cells [3]
  EC50: > 350 µM (not active)
Cells [4]
  EC50: > 350 µM (not active)
BJ [5]
  EC50: > 150 µM (inconclusive)
[6]
  EC50: 19.5 µM (active)
BJ [7]
  EC50: 13.2 µM (active)
[8]
  EC50: > 10.1 µM (inactive)
[9]
  EC50: > 91.2 µM (inactive)
BJ [10]
  EC50: 20.6 µM (active)

## Cc1nc2c(o1)C(=O)c1ccccc1C2=Nc1ccccc1
[11]
  AC50: 2.74 µM (active)
[12]
  AC50: 3.45 µM (active)
[13]
  IC50: 155 µM (inactive)
[14]
  IC50: > 80 µM (inactive)
[15]
  AC50: 5.92 µM (active)
[16]
  AC50: 4.8 µM (active)
[17]
  AC50: 4.25 µM (active)

## Sc1nnc(-c2cccnc2)n1/N=C/c1ccc(Br)s1
[18]
  IC50: 4.66 µM (active)
[19]
  IC50: > 80 µM (inactive)
[20]
  IC50: 4.27 µM (active)

From ChEMBL document CHEMBL1201862, “PubChem BioAssay data set” (2004)
